Tests used:
[1] = target: T1, Adenosine receptor A1 (Rattus norvegicus, UniProt P25099); assay: Displacement of [3H]DPCPX from adenosine receptor A1 in rat brain membrane in presence of GTP by GTP shift assay; type: cell membranes
T1 sequence (P25099 whole entry): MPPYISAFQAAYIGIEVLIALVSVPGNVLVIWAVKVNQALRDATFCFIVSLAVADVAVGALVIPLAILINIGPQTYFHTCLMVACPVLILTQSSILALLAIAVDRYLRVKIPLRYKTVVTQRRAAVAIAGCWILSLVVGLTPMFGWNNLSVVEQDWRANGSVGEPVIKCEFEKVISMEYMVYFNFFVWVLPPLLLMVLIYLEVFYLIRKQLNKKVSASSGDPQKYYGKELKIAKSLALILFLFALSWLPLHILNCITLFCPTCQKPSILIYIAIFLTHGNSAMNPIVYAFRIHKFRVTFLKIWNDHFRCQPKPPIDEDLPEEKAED

[2] = species: Rattus norvegicus; assay: Selectivity index, ratio of Ki for adenosine receptor A1 in rat brain membrane to Ki for adenosine receptor A2a in rat striatal membrane; type: cell membranes
[3] = species: Rattus norvegicus; assay: Selectivity index, ratio of Ki for adenosine receptor A2a in rat striatal membrane to Ki for adenosine receptor A1 in rat brain membrane; type: cell membranes
[4] = target: T2, Adenosine receptor A1 (Rattus norvegicus) (UniProt P25099); assay: Ratio of Ki for adenosine receptor A1 in rat brain membrane in presence of GTP to Ki for adenosine receptor A1 in rat brain membrane in absence of GTP; type: cell membranes
T2 sequence (whole entry): T1 sequence (P25099 whole entry)

[5] = target: T1, Adenosine receptor A1; assay: Displacement of [3H]DPCPX from adenosine receptor A1 in rat brain membrane; type: cell membranes
[6] = target: Adenosine receptor A2a (Rattus norvegicus, UniProt P30543); assay: Displacement of [3H]NECA from adenosine receptor A2a in rat striatial membrane; type: cell membranes
[7] = Antagonist activity at adenosine receptor A2a in [3H]adenine-labeled guinea pig cerebral cortical slices assessed as inhibition of 2-chloroadenosine-stimulated [3H]-cAMP accumulation; set-up: species or system Cavia porcellus

Adenosine receptor A2a, sequence (P30543 whole entry): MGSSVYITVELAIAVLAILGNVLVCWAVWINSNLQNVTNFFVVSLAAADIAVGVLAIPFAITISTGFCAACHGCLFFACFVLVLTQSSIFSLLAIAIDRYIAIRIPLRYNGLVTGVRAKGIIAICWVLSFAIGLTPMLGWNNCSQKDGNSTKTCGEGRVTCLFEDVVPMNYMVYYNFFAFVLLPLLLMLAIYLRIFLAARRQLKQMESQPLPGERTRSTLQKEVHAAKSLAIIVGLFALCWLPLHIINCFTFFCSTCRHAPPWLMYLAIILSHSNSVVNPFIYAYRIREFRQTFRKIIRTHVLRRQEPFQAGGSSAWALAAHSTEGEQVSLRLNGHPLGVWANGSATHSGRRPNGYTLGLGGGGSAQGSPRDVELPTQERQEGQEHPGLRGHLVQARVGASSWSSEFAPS

SMILES | Ki [1] [µM] | Ratio Ki [2] | Ratio Ki [3] | Ratio Ki [4] | Ki [5] [µM] | Ki [6] [µM] | Ki [7] [µM]
Cn1c(=O)c2c(nc(COc3ccccc3)n2C)n(C)c1=O | 4.01 | 1.3 | 0.8 | 1.3 | – | – | –
Cn1c(=O)c2c(nc(OCc3ccc(Cl)cc3)n2C)n(C)c1=O | – | 5.3 | 0.2 | – | 17.4 | 3.31 | –
Cn1c(=O)c2c(nc(SCc3ccc(Cl)cc3)n2C)n(C)c1=O | – | 1.8 | 0.6 | – | 90 | 51.4 | –
Cn1c(=O)c2c(nc(CSc3ccc(Cl)cc3)n2C)n(C)c1=O | – | 13.9 | 0.1 | – | 20.8 | 1.5 | –
Cn1c(=O)c2c(nc(CCc3ccccc3)n2C)n(C)c1=O | – | 1.2 | 0.9 | – | – | – | –
Cn1c(=O)c2c(ncn2C)n(C)c1=O [CAFFEINE] | – | – | – | – | – | – | 50

Next, values leading:

Ki [1] [µM] | Ratio Ki [2] | Ratio Ki [3] | Ratio Ki [4] | Ki [5] [µM] | Ki [6] [µM] | Ki [7] [µM] | SMILES
1.93 | 0.4 | 2.8 | 1.2 | 1.52 | 4.3 | – | Cn1c(=O)c2c(nc(OCc3ccccc3)n2C)n(C)c1=O
– | 5.7 | 0.2 | – | 7.6 | 1.33 | – | Cn1c(=O)c2c(nc(COc3ccc(Cl)cc3)n2C)n(C)c1=O
– | 1.8 | 0.6 | – | 7.95 | 4.5 | – | Cn1c(=O)c2c(nc(NCc3ccccc3)n2C)n(C)c1=O
– | 1.5 | 0.8 | – | 4.85 | 3.33 | – | Cn1c(=O)c2c(nc(CSc3ccccc3)n2C)n(C)c1=O
– | 0.9 | 1.1 | – | 4.32 | 4.64 | – | Cn1c(=O)c2c(nc(SCc3ccccc3)n2C)n(C)c1=O
